Experimental findings from article PMC10377034, “Syntheses of 25-Adamantyl-25-alkyl-2-methylidene-1α,25-dihydroxyvitamin D3 Derivatives with Structure–Function Studies of Antagonistic and Agonistic Active Vitamin D Analogs” (Biomolecules, 2023) are described below.

Structures are written as SMILES. pEC50: −log10 of the molar value.

Assay [1] deals with human dedifferentiated fat (DFAT) cells. Kind of assay: Osteogenic differentiation assay: ALP activity in human DFAT cells. In kind it is cell-based. Particulars: osteogenic medium, 100 nM, 7 days, natural hormone 1 = 100%.
Assay [2] has as its system CYP24A1 expression in U937 cells. Kind of assay: CYP24A1 expression (RT-qPCR) in U937 cells. As to conditions: U937 blood cells, 100 nM, 24 h.
Assay [3] relates to CYP24A1 expression in HEK293 cells. Kind of assay: CYP24A1 expression (RT-qPCR) in HEK293 cells. As to conditions: HEK293 kidney cells, 100 nM, 24 h.
A further assay has as its target T1, VDR with SRC-1 (Homo sapiens, UniProt P11473).
T1 sequence (P11473 1-427): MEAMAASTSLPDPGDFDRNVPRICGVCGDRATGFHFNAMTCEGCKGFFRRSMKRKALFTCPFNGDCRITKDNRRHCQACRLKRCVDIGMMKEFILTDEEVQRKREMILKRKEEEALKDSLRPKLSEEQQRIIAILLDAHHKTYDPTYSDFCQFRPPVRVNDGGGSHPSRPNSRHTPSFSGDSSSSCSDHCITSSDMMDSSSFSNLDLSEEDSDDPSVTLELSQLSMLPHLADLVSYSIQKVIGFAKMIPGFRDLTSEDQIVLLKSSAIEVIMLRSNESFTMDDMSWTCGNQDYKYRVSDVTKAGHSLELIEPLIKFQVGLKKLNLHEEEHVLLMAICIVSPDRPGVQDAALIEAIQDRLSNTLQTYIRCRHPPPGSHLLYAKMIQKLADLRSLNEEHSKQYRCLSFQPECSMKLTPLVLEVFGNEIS
T1 sequence (Q15788 595-771 partner limits assumed): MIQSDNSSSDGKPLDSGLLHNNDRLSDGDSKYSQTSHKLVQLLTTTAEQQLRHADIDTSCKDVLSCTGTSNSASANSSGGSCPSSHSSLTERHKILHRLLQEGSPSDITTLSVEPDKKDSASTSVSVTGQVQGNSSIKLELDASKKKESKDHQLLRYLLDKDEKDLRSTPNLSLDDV
Kind of assay: Mammalian two-hybrid assay, VDR binding to SRC-1.

Molecule `C=C1[C@H](O)CC(=C/C=C2\CCC[C@]3(C)[C@@H]([C@H](C)CC#C[C@](O)(CCCC)C45CC6CC(CC(C6)C4)C5)CC[C@@H]23)C[C@H]1O` [ADKM6, (25S)-25-(1-Adamantyl)-1α,25-dihydroxy-2-methylidene-26-propyl-23-yne-19,27-dinorvitamin D3] registered an ALP activity in assay [1] of 62.4%. The “CYP24A1 expression relative to natural hormone 1” value in assay [2] worked out at 77.2%; in assay [3], 61.4%. On VDR with SRC-1, this molecule showed a pEC50 of 8.62.
